Data published in ChEMBL document CHEMBL1143290, “In vitro anti-inflammatory activity of lignans isolated from Magnolia fargesii” (Bioorg Med Chem Lett, 2009).

How the values were obtained:
[1] = Inhibition of NOS
[2] = tested on: BV-2; experiment: Inhibition of NO production in LPS-stimulated mouse BV2 cells assessed as nitrite accumulation after 20 hrs by Griess reagent method; type: functional, cell-based; conditions: BV-2, 20 h

Row | SMILES | IC50 [1] | IC50 [2]
1 | CNC(=N)NCCC[C@H](N)C(=O)O [TILARGININE] | 19.2 µM | 
2 | COc1ccc([C@H]2OC[C@H]3[C@@H]2CO[C@@H]3c2cc(OC)c(OC)c(OC)c2)cc1OC |  | 20.5 µM
3 | COc1cc([C@H]2OC[C@H]3[C@@H]2CO[C@@H]3c2cc(OC)c(OC)c(OC)c2)cc(OC)c1OC |  | 28.6 µM
4 | COc1ccc([C@H]2OC[C@H]3[C@@H]2CO[C@@H]3c2ccc(OC)c(OC)c2)cc1OC [(+)-EUDESMIN] |  | 30 µM
